# From ChEMBL document CHEMBL3864130, “A novel lead of P-selectin inhibitor: Discovery, synthesis, bioassays and action mechanism” (2016)
# Calls of active or inactive are those of the source. The rule behind the calls is not given here.
# Columns and labels:
# [1] = molecular target: T1, P-selectin (Homo sapiens) (UniProt P16109); assay: Binding affinity to P-selectin (unknown origin) assessed as maximal absorbance at 340.8 nanometer at 0.18 mM by UV spectroscopy
# T1 sequence (whole entry): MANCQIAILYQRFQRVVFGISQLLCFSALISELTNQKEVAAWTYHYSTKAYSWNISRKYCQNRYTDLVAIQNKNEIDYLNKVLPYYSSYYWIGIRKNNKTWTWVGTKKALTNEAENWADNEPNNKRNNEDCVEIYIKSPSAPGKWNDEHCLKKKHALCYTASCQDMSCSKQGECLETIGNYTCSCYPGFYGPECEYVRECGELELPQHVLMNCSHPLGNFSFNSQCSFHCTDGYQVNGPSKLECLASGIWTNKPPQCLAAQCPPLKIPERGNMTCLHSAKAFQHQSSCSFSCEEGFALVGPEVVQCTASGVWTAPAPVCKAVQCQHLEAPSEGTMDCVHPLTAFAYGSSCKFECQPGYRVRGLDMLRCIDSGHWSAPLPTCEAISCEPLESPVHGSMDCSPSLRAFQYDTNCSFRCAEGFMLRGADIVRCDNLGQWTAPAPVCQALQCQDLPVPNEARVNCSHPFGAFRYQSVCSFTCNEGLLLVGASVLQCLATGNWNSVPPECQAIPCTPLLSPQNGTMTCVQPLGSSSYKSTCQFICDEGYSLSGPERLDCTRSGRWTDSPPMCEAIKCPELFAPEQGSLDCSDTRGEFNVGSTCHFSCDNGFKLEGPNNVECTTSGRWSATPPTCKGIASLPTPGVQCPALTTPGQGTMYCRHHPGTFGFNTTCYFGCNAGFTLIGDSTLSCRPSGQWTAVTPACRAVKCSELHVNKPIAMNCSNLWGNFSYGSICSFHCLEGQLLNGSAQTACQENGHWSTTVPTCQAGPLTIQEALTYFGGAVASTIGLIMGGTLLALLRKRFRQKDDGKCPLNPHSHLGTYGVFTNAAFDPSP
# [2] = molecular target: T2, P-selectin (Rattus norvegicus) (UniProt P98106); assay: (§1) Downregulation of P-selectin expression in arachidonic acid-activated Sprague-Dawley rat platelets assessed as fluorescence intensity at 200 nM pretreated for 30 mins followed by arachidonic acid addition measured after 5 mins by phycoerythrin-anti-[…] staining-based flow cytometry (reference value: 1621)
# T2 sequence (whole entry): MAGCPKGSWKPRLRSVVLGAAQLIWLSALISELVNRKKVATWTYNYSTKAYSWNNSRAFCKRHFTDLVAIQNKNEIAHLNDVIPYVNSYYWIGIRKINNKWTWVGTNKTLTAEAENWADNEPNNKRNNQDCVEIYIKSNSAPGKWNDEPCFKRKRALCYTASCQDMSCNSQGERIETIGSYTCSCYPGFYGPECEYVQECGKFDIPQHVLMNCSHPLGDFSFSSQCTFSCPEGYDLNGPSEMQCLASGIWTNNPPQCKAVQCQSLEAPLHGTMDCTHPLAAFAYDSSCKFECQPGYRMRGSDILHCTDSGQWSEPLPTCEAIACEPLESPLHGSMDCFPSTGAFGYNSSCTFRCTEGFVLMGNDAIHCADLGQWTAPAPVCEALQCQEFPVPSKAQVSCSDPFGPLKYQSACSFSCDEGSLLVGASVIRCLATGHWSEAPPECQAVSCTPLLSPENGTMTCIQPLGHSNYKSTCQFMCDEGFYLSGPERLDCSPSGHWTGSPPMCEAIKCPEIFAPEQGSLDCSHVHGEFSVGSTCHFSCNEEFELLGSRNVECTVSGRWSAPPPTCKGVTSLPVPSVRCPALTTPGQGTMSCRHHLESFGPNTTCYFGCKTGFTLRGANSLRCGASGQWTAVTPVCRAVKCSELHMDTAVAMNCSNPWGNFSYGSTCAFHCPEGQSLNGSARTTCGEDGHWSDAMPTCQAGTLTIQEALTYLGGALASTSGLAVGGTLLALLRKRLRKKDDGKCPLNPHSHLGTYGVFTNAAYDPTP
# Mus musculus [3] = assay: Antithrombosis activity in ferric chloride induced ICR mouse model of thrombosis assessed as inhibition of thrombus formation at 200 nmol/kg, po measured after 15 mins; type: functional, organism-based
# [4] = molecular target: T1, P-selectin (Homo sapiens); assay: Binding affinity to P-selectin (unknown origin) assessed as maximal absorbance at 352 nanometer at 0.18 mM by UV spectroscopy
# Mus musculus [5] = assay: Decrease in serum IL8 level in xylene induced ICR mouse ear edema model at 2 nmol/kg,po pretreated for 30 mins followed by topical administration of xylene; type: functional
# Mus musculus [6] = assay: Antiinflammatory activity in xylene induced ICR mouse ear edema model assessed as decrease in ear swelling pretreated orally for 30 mins followed by topical administration of xylene measured after 2 hrs; type: functional
# Mus musculus [7] = species: Mus musculus; assay: Potency index, ratio of compound efficacy to aspirin efficacy in ferric chloride induced ICR mouse model of thrombosis; type: functional
# [8] = molecular target: T1, P-selectin (Homo sapiens); assay: Binding affinity to P-selectin (unknown origin) assessed as hyperchromic effect at 340.8 nanometer at 0.42 mM by UV spectroscopy
# [9] = molecular target: T1, P-selectin (Homo sapiens); assay: Binding affinity to P-selectin (unknown origin) assessed as maximal absorbance at 295.4 nanometer at 0.18 mM by UV spectroscopy
# [10] = molecular target: T2, P-selectin (Rattus norvegicus); assay: Downregulation of P-selectin expression in arachidonic acid-activated Sprague-Dawley rat platelets at 200 to 2000 nM pretreated with platelets followed by arachidonic acid addition measured after 3 mins by ELISA
# [11] = molecular target: T2, P-selectin (Rattus norvegicus); assay: as §1, with “2000” for “200”
# Mus musculus [12] = assay: Decrease in serum IL8 level in xylene induced ICR mouse ear edema model administered orally 30 mins prior to topical administration of xylene; type: functional
# Mus musculus [13] = assay: Potency index, ratio of compound efficacy to aspirin efficacy in xylene induced ICR mouse ear edema model; type: functional
# Rattus norvegicus [14] = assay: Antithrombotic activity in po dosed Sprague-Dawley rat model of thrombosis assessed as inhibition of thrombus formation measured after 30 mins; type: functional
# [15] = molecular target: T1, P-selectin (Homo sapiens); assay: Binding affinity to P-selectin (unknown origin) assessed as red shift at 352 nanometer at 0.42 mM by UV spectroscopy
# [16] = molecular target: T2, P-selectin (Rattus norvegicus); assay: Downregulation of P-selectin expression in arachidonic acid-activated Sprague-Dawley rat platelets assessed as decrease in fluorescence intensity pretreated for 30 mins followed by arachidonic acid addition measured after 5 mins by phycoerythrin-anti-[…] staining-based flow cytometry
# [17] = molecular target: T1, P-selectin (Homo sapiens); assay: Binding affinity to P-selectin (unknown origin) assessed as red shift at 295.4 nanometer at 0.42 mM by UV spectroscopy
# [18] = molecular target: T2, P-selectin (Rattus norvegicus); assay: Downregulation of P-selectin expression in arachidonic acid-activated Sprague-Dawley rat platelets assessed as P-selectin levels pretreated with platelets followed by arachidonic acid addition measured after 3 mins by ELISA
# [19] = molecular target: T1, P-selectin (Homo sapiens); assay: Binding affinity to P-selectin (unknown origin) assessed as bathochromic shift at 340.8 nanometer at 0.42 mM by UV spectroscopy
# Rattus norvegicus [20] = species: Rattus norvegicus; assay: Potency index, ratio of compound efficacy to aspirin efficacy for antithrombotic activity in Sprague-Dawley rat model of thrombosis; type: functional
# Mus musculus [21] = assay: Decrease in serum TNF-alpha level in xylene induced ICR mouse ear edema model administered orally 30 mins prior to topical administration of xylene; type: functional
# [22] = molecular target: T2, P-selectin (Rattus norvegicus); assay: Downregulation of P-selectin expression in arachidonic acid-activated Sprague-Dawley rat platelets assessed as mean fluorescence intensity at 20 nM pretreated for 30 mins followed by arachidonic acid addition measured after 5 mins by phycoerythrin-anti-[…] staining-based flow cytometry (reference value: 1621)
# Mus musculus [23] = assay: Antithrombosis activity in ferric cholride induced ICR mouse model of thrombosis assessed as inhibition of thrombus formation at 240 umol/kg, po measured after 15 mins; type: functional, organism-based
# Mus musculus [24] = assay: Antiinflammatory activity in xylene induced ICR mouse ear edema model assessed as decrease in ear swelling at 0.11 mmol/kg, po pretreated for 30 mins followed by topical administration of xylene measured after 2 hrs; type: functional, organism-based
# Rattus norvegicus [25] = assay: Antithrombotic activity in Sprague-Dawley rat model of thrombosis assessed as inhibition of thrombus formation at 167 umol/kg, po measured after 30 mins; type: functional, organism-based
smiles,measurement,setting,value
O=C(O)[C@H](Cc1ccccc1)NCCc1nc(CO)cc2c1[nH]c1ccccc12,Activity,[1],0.355
same,Flu intensity,[2],754
same,inhibition,Mus musculus [3],Active
same,Activity,[4],0.339
same,Activity,Mus musculus [5],Active
same,Activity,Mus musculus [6],Dose-dependent effect
same,MED,Mus musculus [6],20 nmol/kg
same,Ratio,Mus musculus [7],1200
same,Activity,[8],51.2%
same,Activity,[9],0.451
same,Activity,[10],Active
same,Flu intensity,[11],665
same,Activity,Mus musculus [12],Dose-dependent effect
same,MEC,Mus musculus [12],2 nmol/kg
same,Ratio,Mus musculus [13],550
same,MED,Rattus norvegicus [14],20 nmol/kg
same,inhibition,Rattus norvegicus [14],Dose-dependent effect
same,Activity,[15],1.4 nm
same,Activity,[16],Dose-dependent effect
same,MEC,[16],20 nM
same,Activity,[17],1.4 nm
same,MEC,[18],200 nM
same,Activity,[19],0.6 nm
same,Ratio,Rattus norvegicus [20],835
same,MEC,Mus musculus [21],200 nmol/kg
same,Flu intensity,[22],871
CC(=O)Oc1ccccc1C(=O)O,inhibition,Mus musculus [23],Active
same,Activity,Mus musculus [24],Active
same,inhibition,Rattus norvegicus [25],Active
